One assay has as its system LoVo. Briefly: Cytotoxicity against human LoVo cells at 10 ug/mL. It counts as functional, cell-based.
The next assay has as its system KB. The experiment in a line: Cytotoxicity against human KB cells at 10 ug/mL. It counts as functional, cell-based.

Molecules are shown by their SMILES. The source made the active and inactive calls. The calls are words filed in the database; no cut-off is given here.

Regarding `C#CCCC[C@H]1OC(=O)[C@H]([C@@H](C)CC)NC(=O)[C@@H]2CCCN2C(=O)[C@H](Cc2ccccc2)OC(=O)[C@H](C(C)C)N(C)C(=O)[C@H](C(C)C)NC(=O)[C@H]1C`, the result with LoVo and in the assay with KB was inactive.

(Values after ChEMBL document CHEMBL1158095, “Trungapeptins A-C, cyclodepsipeptides from the marine cyanobacterium Lyngbya majuscula” (J Nat Prod, 2006).)
